According to patent publication US20180044306A1, “1,3,4-THIADIAZOL-2-YL-BENZAMIDE DERIVATIVES AS INHIBITORS OF THE WNT SIGNALLING PATHWAY” (Bayer Pharma Aktiengesellschaft, priority 2015, published 2018):

What was measured:
[1] = test system: constitutive active colorectal cancer cell (CRC) Wnt pathway (HCT116-TOP); assay: Cellular reporter assay, HCT116 Super TopFlash (TOP), constitutive active Wnt pathway; assay type: cell-based; settings: Homo sapiens, HCT-116; HCT116 Super TopFlash reporter cells, luciferase expression, 36 hours incubation, dilution series 50 μM to 15 nM
Protocol: In order to discover and characterize small molecules which inhibit the constitutive active colorectal cancer cell (CRC) Wnt pathway, a cellular reporter assay was employed. The corresponding assay cell was generated by transfection of the colorectal cancer cell line HCT116 (ATCC, #CCL-247) with the Super TopFlash vector (Morin, Science 275, 1997, 1787-1790; Molenaar et al., Cell 86 (3), 1996, 391-399). The HCT116 cell line is cultivated at 37° C. and 5% CO2 in DMEM/F-12 (Life Technologies, #11320-074), supplemented with 2 mM glutamine, 20 mM HEPES, 1.4 mM pyruvate, 0.15% Na-bicarbonate and 10% foetal bovine serum (GIBCO, #10270), this cancer cell line is pathophysiological relevant since it carries a deletion of position S45 in the β-catenin gene, leading to constitutive active Wnt signaling. Stable transfectants were generated by cotransfection with pcDNA3 and selection of stable transfected cells with 1 mg/ml G418.
(§1) In preparation of the assay, the two cell lines were plated 24 hours before at 10000 cells per well of a 384 micro titre plate (MTP) in 30 μL growth medium. Selective inhibitory activity for small molecules on the mutated Wnt pathway was determined after parallel incubation of both (TOP and FOP) HCT116 reporter cell lines with a compound dilution series from 50 μM to 15 nM in steps of 3.16-fold dilutions in CAFTY buffer (130 mM NaCI, 5 mM KCI, 20 mM HEPES, 1 mM MgCl2, 5 mM NaHCO3, pH 7.4) containing 2 mM Ca^2+ and 0.01% BSA. The compounds were thereby serially prediluted in 100% DMSO and thereafter in addition 50 fold into the CAFTY compound dilution buffer (described above). From this dilution 10 μL were added to the cells in 30 μL growth medium and incubated for 36 hours at 37° C. and 5% CO2. Thereafter luciferase assay buffer (1:1 mixture of luciferase substrate buffer (20 mM Tricine, 2.67 mM MgSO4, 0.1 mM EDTA, 4 mM DTT, 270 μM Coenzyme A, 470 μM Luciferin, 530 μM ATP, ph adjusted to pH 7.8 with a sufficient volume of 5M NaOH) and Triton buffer (30 mL Triton X-100, 115 mL glycerol, 308 mg Dithiothreitol, 4.45 g Na2HPO4. 2 H2O, 3.03 g TRIS HCl, ad 1I H2O, pH 7.8) was added as equal volume to the compound solution on the cells to determine luciferase expression as a measure of Wnt signaling activity in a luminometer.

HCT116-FOP = assay: Control reporter assay, HCT116 cells with FOP control vector (non-functional TCF elements); assay type: cell-based; settings: Homo sapiens, HCT-116, luciferase expression, 36 hours incubation, dilution series 50 μM to 15 nM, read-out: HCT116-FOP IC50 [M] mol/L]
Protocol: In a parallel approach, HCT116 cells were cotransfected with the FOP control vector and pcDNA3. The FOP vector is identical to the TOP construct, but it contains instead of functional TCF elements a randomized, non-functional sequence. For this transfection a stable transfected cell line was generated as well.
as §1

| IC50 [1] | IC50 (HCT116-FOP) | SMILES |
| --- | --- | --- |
| 4.59 µM | ≥ 5e-05 M | O=C(CN1CCOCC1)Nc1cc(C(=O)Nc2nnc(C3CCCCC3)s2)ccc1OC(F)(F)F [Example 23, N-(5-cyclohexyl-1,3,4-thiadiazol-2-yl)-3-[(morpholin-4-ylacetyl)amino]-4-(trifluoromethoxy)benzamide] |
| 4.6 µM | ≥ 5e-05 M | COC(=O)N1CCN(c2nnc(NC(=O)c3ccc(OC(F)(F)F)c(NC(=O)CN4CCOCC4)c3)s2)CC1 [Example 24, methyl 4-[5-({3-[(morpholin-4-ylacetyl)amino]-4-(trifluoromethoxy)benzoyl}-amino)-1,3,4-thiadiazol-2-yl]piperazine-1-carboxylate] |
| 13 µM | ≥ 5e-05 M | CC1CCN(c2nnc(NC(=O)c3ccc(OC(F)(F)F)c(NC(=O)CN4CCOCC4)c3)s2)CC1 [Example 25, N-[5-(4-methylpiperidin-1-yl)-1,3,4-thiadiazol-2-yl]-3-[(morpholin-4-ylacetyl)-amino]-4-(trifluoromethoxy)-benzamide] |
| 15 µM | ≥ 5e-05 M | CC(=O)N1CCN(c2nnc(NC(=O)c3ccc(OC(F)(F)F)c(NC(=O)CN4CCOCC4)c3)s2)CC1 [Example 26, N-[5-(4-acetylpiperazin-1-yl)-1,3,4-thiadiazol-2-yl]-3-[(morpholin-4-ylacetyl)amino]-4-(trifluoromethoxy)benzamide] |
| 20 µM | ≥ 5e-05 M | CC1(O)CCN(c2nnc(NC(=O)c3ccc(OC(F)(F)F)c(NC(=O)CN4CCOCC4)c3)s2)CC1 [Example 27] |
| 20 µM | 2.69e-05 M | CN1CCN(CC(=O)Nc2cc(C(=O)Nc3nnc(N4CCC(C(C)(C)O)CC4)s3)ccc2OC(F)(F)F)CC1 [Example 28, N-{5-[4-(2-hydroxypropan-2-yl)piperidin-1-yl]-1,3,4-thiadiazol-2-yI}-3-{[(4-methylpiperazin-1-yl)-acetyl]amino}-4-(trifluoromethoxy)benzamide] |
| 26.8 µM | ≥ 5e-05 M | O=C(CN1CCOCC1)Nc1cc(C(=O)Nc2nnc(N3CCC(O)CC3)s2)ccc1OC(F)(F)F [Example 29, N-[5-(4-hydroxypiperidin-1-yl)-1,3,4-thiadiazol-2-yl]-3-[(morpholin-4-ylacetyl)-amino]-4-(trifluoromethoxy)-benzamide] |
| 33.5 µM | ≥ 5e-05 M | COC1CCN(c2nnc(NC(=O)c3ccc(OC(F)(F)F)c(NC(=O)CN4CCOCC4)c3)s2)CC1 [Example 30, N-[5-(4-methoxypiperidin-1-yl)-1,3,4-thiadiazol-2-yl]-3-((morpholin-4-ylacetyl)-amino]-4-(trifluoromethoxy)-benzamide] |
| 34.1 µM | ≥ 5e-05 M | O=C(CN1CCOCC1)Nc1cc(C(=O)Nc2nnc(N3CCCCC3)s2)ccc1OC(F)(F)F [Example 31, 3-[(morpholin-4-ylacetyl)-amino]-N-[5-(piperidin-1-yl)-1,3,4-thiadiazol-2-yl]-4-(trifluoromethoxy)benzamide] |
| 50 µM | ≥ 5e-05 M | O=C(CN1CCOCC1)Nc1cc(C(=O)Nc2nnc(N3CCCC3)s2)ccc1OC(F)(F)F [Example 32, 3-[(morpholin-4-ylacetyl)-amino]-N-(5-(pyrrolidin-1-yl)-1,3,4-thiadiazol-2-yl)-4-(trifluoromethoxy)benzamide] |
| 50 µM | ≥ 5e-05 M | CN(C)C(=O)N1CCN(c2nnc(NC(=O)c3ccc(OC(F)(F)F)c(NC(=O)CN4CCOCC4)c3)s2)CC1 [Example 33] |
| 50 µM | ≥ 5e-05 M | CC1(C)CCN(c2nnc(NC(=O)c3ccc(OC(F)(F)F)c(NC(=O)CN4CCOCC4)c3)s2)CC1 [Example 34, N-[5-(4,4-dimethylpiperidin-1-yl)-1,3,4-thiadiazol-2-yl]-3-[(morpholin-4-ylacetyl)-amino]-4-(trifluoromethoxy)-benzamide] |
